Experimental data published in the NIST ThermoML archive (doi:10.1016/j.jct.2018.12.019).
Numbers after ± are expanded uncertainties.

Columns and labels:
[1] = xn = mol fraction of the nth substance listed; details: 98 kPa, Liquid, x2 = 0; for speed of sound: Frequency=3 MHz, Single path-length method; for mass density: Vibrating tube method
[2] = excess molar enthalpy (molar enthalpy of mixing); xn = mol fraction of the nth substance listed; details: 298.15 K; 98 kPa; Liquid; Calvet calorimetry; x2 = 0
[3] = 98 kPa, Liquid; for speed of sound: Frequency=3 MHz, Single path-length method; for mass density: Vibrating tube method

SMILES	speed of sound ([1]; 288.15 K)	mass density ([1]; 288.15 K)	speed of sound ([1]; 298.15 K)	mass density ([1]; 298.15 K)	speed of sound ([1]; 308.15 K)	mass density ([1]; 308.15 K)	speed of sound ([1]; 318.15 K)	mass density ([1]; 318.15 K)	speed of sound ([1]; 328.15 K)	mass density ([1]; 328.15 K)	speed of sound ([3]; 288.15 K)	mass density ([3]; 288.15 K)	speed of sound ([3]; 298.15 K)	mass density ([3]; 298.15 K)	speed of sound ([3]; 308.15 K)	mass density ([3]; 308.15 K)	speed of sound ([3]; 318.15 K)	mass density ([3]; 318.15 K)	speed of sound ([3]; 328.15 K)	mass density ([3]; 328.15 K)	also measured
CCCO [propan-1-ol] + Cn1ccnc1	1239.5 ± 1 m/s	807.5 ± 0.81 kg/m3	1205.2 ± 1 m/s	799.53 ± 0.81 kg/m3	1171.1 ± 1 m/s	791.44 ± 0.81 kg/m3	1137.3 ± 1 m/s	783.18 ± 0.81 kg/m3	1103.8 ± 1 m/s	774.7 ± 0.81 kg/m3											excess molar enthalpy [2]: 0 ± 0.000239 kcal/mol
CCO [ethanol] + Cn1ccnc1	1176.9 ± 1.1 m/s	793.68 ± 0.81 kg/m3	1142.7 ± 1.1 m/s	785.14 ± 0.81 kg/m3	1108.8 ± 1.1 m/s	776.48 ± 0.81 kg/m3	1075.2 ± 1.1 m/s	767.68 ± 0.81 kg/m3	1041.9 ± 1.1 m/s	758.65 ± 0.81 kg/m3											excess molar enthalpy [2]: 0 ± 0.000239 kcal/mol
CO [methanol]											1135.7 ± 1.1 m/s	796.13 ± 0.81 kg/m3	1102.6 ± 1.1 m/s	786.75 ± 0.81 kg/m3	1069.8 ± 1.1 m/s	777.29 ± 0.81 kg/m3	1037.4 ± 1.1 m/s	767.71 ± 0.81 kg/m3	1005.3 ± 1.1 m/s	757.97 ± 0.81 kg/m3	
CC(C)O [propan-2-ol] + Cn1ccnc1	1173.2 ± 1.1 m/s	789.18 ± 0.81 kg/m3	1138.4 ± 1.1 m/s	780.86 ± 0.81 kg/m3	1103.3 ± 1.1 m/s	772.26 ± 0.81 kg/m3	1067.9 ± 1.1 m/s	763.3 ± 0.81 kg/m3	1031.9 ± 1.1 m/s	753.91 ± 0.81 kg/m3											excess molar enthalpy [2]: 0 ± 0.000239 kcal/mol
CO [methanol] + Cn1ccnc1	1135.7 ± 1.1 m/s	796.13 ± 0.81 kg/m3	1102.6 ± 1.1 m/s	786.75 ± 0.81 kg/m3	1069.8 ± 1.1 m/s	777.29 ± 0.81 kg/m3	1037.4 ± 1.1 m/s	767.71 ± 0.81 kg/m3	1005.3 ± 1.1 m/s	757.97 ± 0.81 kg/m3											
CC(C)O [propan-2-ol]											1173.2 ± 1.1 m/s	789.18 ± 0.81 kg/m3	1138.4 ± 1.1 m/s	780.86 ± 0.81 kg/m3	1103.3 ± 1.1 m/s	772.26 ± 0.81 kg/m3	1067.9 ± 1.1 m/s	763.3 ± 0.81 kg/m3	1031.9 ± 1.1 m/s	753.91 ± 0.81 kg/m3	
O [water] + Cn1ccnc1									1547.3 ± 1 m/s	985.71 ± 0.8 kg/m3											
CCCO [propan-1-ol]											1239.5 ± 1 m/s	807.5 ± 0.81 kg/m3	1205.2 ± 1 m/s	799.53 ± 0.81 kg/m3	1171.1 ± 1 m/s	791.44 ± 0.81 kg/m3	1137.3 ± 1 m/s	783.18 ± 0.81 kg/m3	1103.8 ± 1 m/s	774.7 ± 0.81 kg/m3	
CCO [ethanol]											1176.9 ± 1.1 m/s	793.68 ± 0.81 kg/m3	1142.7 ± 1.1 m/s	785.14 ± 0.81 kg/m3	1108.8 ± 1.1 m/s	776.48 ± 0.81 kg/m3	1075.2 ± 1.1 m/s	767.68 ± 0.81 kg/m3	1041.9 ± 1.1 m/s	758.65 ± 0.81 kg/m3	
Cn1ccnc1 [1-methylimidazole]											1634.1 ± 1.4 m/s	1039.36 ± 0.83 kg/m3	1596.5 ± 1.4 m/s	1030.52 ± 0.83 kg/m3	1559 ± 1.4 m/s	1021.66 ± 0.83 kg/m3	1521.8 ± 1.4 m/s	1012.76 ± 0.83 kg/m3	1485 ± 1.4 m/s	1003.83 ± 0.83 kg/m3	
